Results on 27 compounds are retold here after patent US20220348590A1, “CYCLOOXYGENASE-2 INHIBITORS AND USES THEREOF” (The Board Institute, Inc., priority 2019, published 2022).

pIC50: −log10 of the molar value. Where two headings read alike, the source gives them in different places.

The test deals with T1, human recombinant COX2 (hCOX2) (UniProt P35354).
T1 sequence (P35354 1-604): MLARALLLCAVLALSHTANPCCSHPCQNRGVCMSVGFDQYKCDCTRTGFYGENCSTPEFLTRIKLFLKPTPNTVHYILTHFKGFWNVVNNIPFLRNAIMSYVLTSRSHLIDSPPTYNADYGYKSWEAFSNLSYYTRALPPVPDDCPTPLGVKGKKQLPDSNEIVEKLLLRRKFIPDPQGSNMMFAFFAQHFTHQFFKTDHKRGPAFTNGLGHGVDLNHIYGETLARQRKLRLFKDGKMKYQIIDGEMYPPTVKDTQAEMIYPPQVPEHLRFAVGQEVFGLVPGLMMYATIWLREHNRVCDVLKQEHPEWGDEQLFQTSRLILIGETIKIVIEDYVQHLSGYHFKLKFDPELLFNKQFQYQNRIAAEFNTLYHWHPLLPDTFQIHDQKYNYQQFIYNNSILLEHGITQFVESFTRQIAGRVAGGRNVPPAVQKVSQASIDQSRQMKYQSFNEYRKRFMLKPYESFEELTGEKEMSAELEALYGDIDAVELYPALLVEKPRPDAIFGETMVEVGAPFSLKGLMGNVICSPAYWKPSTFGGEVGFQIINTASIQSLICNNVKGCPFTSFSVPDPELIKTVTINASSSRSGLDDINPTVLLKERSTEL
Nature of the test: LCMS-based COX2 enzymatic inhibition assay (PGE2 quantification). Further details: COX2 2 minutes pge2/pge2d4 area ratio Avg; other: 2 minutes; readout pge2/pge2d4 area ratio; average; COX2 2 minutes pge2/pge2d4 area ratio Avg; LLE; average LLE; COX2 2 minutes pge2 area (counts) Avg; readout pge2 area (counts); other: 2 min; "ovine COX2 (oCOX2), human recombinant COX2 (hCOX2)". As to conditions: for COX2 2 minutes pge2/pge2d4 area ratio Avg. LLE / COX2 2 minutes pge2 area (counts) Avg. LLE / COX2 10 minutes pge2 area (counts) Avg. LLE: average LLE; for pIC50: average. In kind it is biochemical. In short, it runs like this: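 PGE2 formed from arachidonic acid (final 5 μM, 2 min) was measured by LC-MS-MS against DMSO controls. Enzyme (oCOX-1 0.1 μg or hCOX2 0.2 μg) with hematin/epinephrine cofactors at pH 8.0 was given 10 min at 37 °C with compound first. Twelve-point curves run three times gave IC50.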

[1] abbreviates: 2 minutes, readout pge2/pge2d4 area ratio.
Where [2] appears, read: 2 minutes, readout pge2/pge2d4 area ratio, read-out: COX2 2 minutes pge2/pge2d4 area ratio Avg. IC50.
Setting [3] is: 2 minutes, readout pge2 area (counts).
Setting [4] is: 2 minutes, readout pge2 area (counts), read-out: COX2 2 minutes pge2 area (counts) Avg. IC50.
Setting [5] is: read-out: COX2 2 minutes pge2/pge2d4 area ratio Avg. IC50 (microM), 2 minutes, readout pge2/pge2d4 area ratio.
Where [6] appears, read: 10 minutes, readout pge2 area (counts).
The mark [7] stands for this setting: 10 minutes, readout pge2 area (counts), read-out: COX2 10 minutes pge2 area (counts) Avg. IC50.

As to `COc1ncc(NCc2sccc2C)nc1-c1ccc(S(C)(=O)=O)cc1` [Compound 62], the “COX2 2 minutes pge2/pge2d4 area ratio Avg. LLE” value under setting [1] turned out to be 4.781. Moreover, the pIC50 is, setting by setting: under setting [2], 7.46; under setting [4], 7.39. Besides, the “COX2 2 minutes pge2 area (counts) Avg. LLE” value (from here on “COX2 2 minutes pge2 area”) under setting [3] stood at 4.654.
For the compound `C[C@H](Nc1cccc(-c2ccc(S(C)(=O)=O)cc2)n1)c1ccoc1` (single isomer, unassigned) [Compound 241], the “COX2 2 minutes pge2/pge2d4 area ratio Avg. LLE” value under setting [1] is reported as 2.087. For the same compound, the pIC50 reads like this: under setting [2], 5.53; under setting [4], 5.36. In addition, the “COX2 2 minutes pge2 area” value under setting [3] is 1.8776.
The like results for `COc1ncc(NCc2ccon2)nc1-c1ccc(S(C)(=O)=O)cc1` [Compound 152] were, in that order, 6.031, 6.53, 6.76 and 6.197.
As to `COc1ncc(NCc2ccns2)nc1-c1ccc(S(C)(=O)=O)cc1` [Compound 102], the “COX2 2 minutes pge2/pge2d4 area ratio Avg. LLE” value under setting [1] was 5.647. Moreover, the pIC50 runs as follows: under setting [2], 7.06; under setting [4], 6.99. In addition, the “COX2 2 minutes pge2 area” value under setting [3] stood at 5.572.
`COCc1ccc(-c2ccc(S(C)(=O)=O)cc2)nc1NCc1cccs1` [Compound 189]: under setting [1], the “COX2 2 minutes pge2/pge2d4 area ratio Avg. LLE” value is 2.767. Further, the pIC50 is 6.18 under setting [2] and 6.08 under setting [4]. Besides, the “COX2 2 minutes pge2 area” value under setting [3] amounted to 2.661.
As to `CS(=O)(=O)c1ccc(-c2cncc(N3Cc4cccnc4C3)n2)cc1` [Compound 328], the “COX2 2 minutes pge2 area” value under setting [3] amounted to 4.414. Under setting [5], the pIC50 was 5.28.
Take `CS(=O)(=O)c1ccc(-c2cncc(N3CCCC3)n2)cc1` [Compound 326]: the “COX2 2 minutes pge2 area” value under setting [3] stood at 4.034. Under setting [6], the “COX2 10 minutes pge2 area (counts) Avg. LLE” value (“COX2 10 minutes pge2 area” below) was 4.754. In addition, the pIC50 runs as follows: under setting [7], 6.00; under setting [5], 5.28.
Turning to `CC(=O)c1ncc(-c2ccc(S(C)(=O)=O)cc2)nc1NCc1cccs1` [Compound 207], the “COX2 2 minutes pge2/pge2d4 area ratio Avg. LLE” value under setting [1] amounted to 3.8683. The pIC50 is, setting by setting: under setting [2], 5.88; under setting [4], 5.97. Moreover, under setting [3], the “COX2 2 minutes pge2 area” value came to 3.915.
Turning to `CC(C)(C)OC(=O)N(c1ccoc1)c1cccc(-c2ccc(S(C)(=O)=O)cc2)n1` [Compound 296], the pIC50 under setting [5] is 5.28.
For the compound `Cn1cc(CNc2cncc(-c3ccc(S(C)(=O)=O)cc3)n2)cn1` [Compound 237], the “COX2 2 minutes pge2/pge2d4 area ratio Avg. LLE” value under setting [1] came out at 4.753. Besides, the pIC50 under setting [2] was 5.59 and the pIC50 under setting [4] is 5.65. Besides, the “COX2 2 minutes pge2 area” value under setting [3] amounted to 4.8121.
For `CN(Cc1ccco1)c1cccc(-c2ccc(S(C)(=O)=O)cc2)n1` [Compound 200], under setting [1], the “COX2 2 minutes pge2/pge2d4 area ratio Avg. LLE” value is 2.819. Further, the pIC50 is, setting by setting: under setting [2], 6.00; under setting [4], 5.86. Further, under setting [3], the “COX2 2 minutes pge2 area” value was 2.726.
Regarding `CS(=O)(=O)c1ccc(-n2ccc3ccc(/C(=N\O)c4cccs4)nc32)cc1` [Compound 187], the pIC50 is 6.20 under setting [2] and 6.20 under setting [4].
Regarding `CS(=O)(=O)c1ccc(-c2ccnc(NCc3ccco3)c2)cc1` [Compound 283], under setting [5], the pIC50 was 5.28.
For the compound `CS(=O)(=O)c1ccc(-c2cnnc(NCc3cccs3)n2)cc1` [Compound 114], the “COX2 2 minutes pge2/pge2d4 area ratio Avg. LLE” value under setting [1] was found to be 5.0904. The pIC50 runs as follows: under setting [2], 6.98; under setting [4], 6.88. Further, under setting [3], the “COX2 2 minutes pge2 area” value was 5.034.
For `COc1ccc(NCc2ccco2)nc1-c1ccc(S(C)(=O)=O)cc1` [Compound 149], the “COX2 2 minutes pge2/pge2d4 area ratio Avg. LLE” value under setting [1] worked out at 4.057. Also, the pIC50 is 6.57 under setting [2] and 6.54 under setting [4]. In addition, the “COX2 2 minutes pge2 area” value under setting [3] amounted to 4.033.
For `CS(=O)(=O)c1ccc(-c2cncc(Oc3ccc(F)cc3)n2)cc1` [Compound 211], the “COX2 2 minutes pge2/pge2d4 area ratio Avg. LLE” value under setting [1] was found to be 3.18. Besides, the pIC50 reads like this: under setting [2], 5.85; under setting [4], 5.91; under setting [7], 5.78. The “COX2 2 minutes pge2 area” value under setting [3] stood at 3.779. For the same compound, under setting [6], the “COX2 10 minutes pge2 area” value came to 3.305.
On to `C[C@@H](Nc1cccc(-c2ccc(S(C)(=O)=O)cc2)n1)c1ccco1` (single isomer, unassigned) [Compound 274], for which the “COX2 2 minutes pge2/pge2d4 area ratio Avg. LLE” value under setting [1] was 1.914. The “COX2 2 minutes pge2 area” value under setting [3] was found to be 1.914. The pIC50 under setting [5] is 5.28.
On to `CS(=O)(=O)c1ccc(-c2cncc(NC[C@H]3CCCO3)n2)cc1` [Compound 263], for which, under setting [1], the “COX2 2 minutes pge2/pge2d4 area ratio Avg. LLE” value turned out to be 4.417. Besides, the pIC50 is 5.34 under setting [2] and 5.39 under setting [4]. For the same compound, the “COX2 2 minutes pge2 area” value under setting [3] came to 4.469.
For the compound `Cc1coc(C(=O)Nc2cccc(-c3ccc(S(C)(=O)=O)cc3)n2)c1` [Compound 276], under setting [1], the “COX2 2 minutes pge2/pge2d4 area ratio Avg. LLE” value amounted to 2.554. The “COX2 2 minutes pge2 area” value under setting [3] stood at 2.659. In addition, the pIC50 under setting [4] was 5.39 and the pIC50 under setting [5] is 5.28.
As for `CS(=O)(=O)c1ccc(-c2cncc(SC[C@@H]3CCCO3)n2)cc1` (single isomer, unassigned) [Compound 186], the “COX2 2 minutes pge2/pge2d4 area ratio Avg. LLE” value under setting [1] was determined as 4.315. In addition, the pIC50 is, setting by setting: under setting [2], 6.20; under setting [4], 6.21. The “COX2 2 minutes pge2 area” value under setting [3] came to 4.316.
Turning to `CS(=O)(=O)c1ccc(-c2ncc3ncn(Cc4cccs4)c3n2)cc1` [Compound 164], the “COX2 2 minutes pge2/pge2d4 area ratio Avg. LLE” value under setting [1] is on record as 2.595. Also, the pIC50 reads like this: under setting [2], 6.39; under setting [4], 6.43; under setting [7], 7.30. The “COX2 2 minutes pge2 area” value under setting [3] was 2.638. The “COX2 10 minutes pge2 area” value under setting [6] was determined as 3.534.
Take `CS(=O)(=O)c1ccc(-c2cncc(OCc3ccco3)n2)cc1` [Compound 143]: the “COX2 2 minutes pge2/pge2d4 area ratio Avg. LLE” value under setting [1] is on record as 4.842. Also, the pIC50 was 6.65 under setting [2] and 6.67 under setting [4]. Further, the “COX2 2 minutes pge2 area” value under setting [3] is on record as 4.928.
With `CS(=O)(=O)c1ccc(-c2cccc(/C=C/c3ccoc3)n2)cc1` [Compound 247], the “COX2 2 minutes pge2/pge2d4 area ratio Avg. LLE” value under setting [1] worked out at 1.819. Besides, under setting [2], the pIC50 is 5.47. Under setting [3], the “COX2 2 minutes pge2 area” value was 1.724.
As to `CS(=O)(=O)c1ccc(-c2nncc(NCc3cccs3)n2)cc1` [Compound 171], under setting [1], the “COX2 2 minutes pge2/pge2d4 area ratio Avg. LLE” value amounted to 4.364. In addition, the pIC50 by setting is: under setting [2], 6.35; under setting [4], 6.34. For the same compound, the “COX2 2 minutes pge2 area” value under setting [3] was determined as 4.345.
In the case of `CS(=O)(=O)c1ccc(-c2nc(NCc3cccs3)no2)cc1` [Compound 327], the pIC50 under setting [5] is 5.28.
Regarding `C[C@@H](Oc1cccc(-c2ccc(S(C)(=O)=O)cc2)n1)c1cccs1` (single isomer, unassigned) [Compound 229], under setting [1], the “COX2 2 minutes pge2/pge2d4 area ratio Avg. LLE” value was determined as 1.429. Further, the pIC50 runs as follows: under setting [2], 5.65; under setting [4], 5.70. For the same compound, under setting [3], the “COX2 2 minutes pge2 area” value was 1.483.
Regarding `CS(=O)(=O)c1ccc(-c2cncc(OC[C@H]3CCCO3)n2)cc1` [Compound 252], the “COX2 2 minutes pge2/pge2d4 area ratio Avg. LLE” value under setting [1] is 4.199. Also, the pIC50 under setting [2] was 5.43. Also, under setting [3], the “COX2 2 minutes pge2 area” value came to 4.054.
